# Activity calls are given as the source filed them. No cut-off for these calls is given here.
# Legend:
# [1] = Metabolic stability in human liver microsomes assessed as half life at 1 uM incubated upto 45 mins in presence of NADPH by LC-MS/MS analysis; format: ADME, Microsome
# [2] = Toxicity in okadaic acid-induced cognitive impairment C57BL/6 mouse assessed as change in serum AKP level at 10 to 30 mg/kg,po once daily for 2 weeks; format: organism-based; settings: in vivo, 336 h, dose 10-30 mg/kg
# [3] = MRT (0 to infinity) in Sprague-Dawley rat at 10 mg/kg,po measured upto 24 hrs by LC-MS/MS analysis; format: ADME, organism-based; settings: in vivo
# [4] = Apparent permeability across apical to basolateral side in dog MDCK-MDR1 cells at 5 uM incubated for 90 mins by LC-MS/MS analysis; format: ADME, cell-based, Canis lupus familiaris
# Mus musculus [5] = assay: Antialzheimer activity in okadaic acid-induced cognitive impairment C57BL/6 mouse assessed as downregulation of Tau phosphorylation at Thr212 residue in temporal cortex at 10 to 30 mg/kg,po once daily for 2 weeks by ELISA; format: functional, organism-based; settings: dose 10-30 mg/kg
# CYP2D6 = CYP2D6 (Homo sapiens, UniProt P10635); assay: Inhibition of CYP2D6 in human liver microsomes using dextromethorphan as substrate at 10 uM preincubated for 10 mins followed by NADPH addition and measured after 40 mins by LC-MS/MS analysis relative to control; format: ADME, Microsome; settings: probe dextromethorphan, time 50 min
# CYP2D6, sequence (P10635 whole entry): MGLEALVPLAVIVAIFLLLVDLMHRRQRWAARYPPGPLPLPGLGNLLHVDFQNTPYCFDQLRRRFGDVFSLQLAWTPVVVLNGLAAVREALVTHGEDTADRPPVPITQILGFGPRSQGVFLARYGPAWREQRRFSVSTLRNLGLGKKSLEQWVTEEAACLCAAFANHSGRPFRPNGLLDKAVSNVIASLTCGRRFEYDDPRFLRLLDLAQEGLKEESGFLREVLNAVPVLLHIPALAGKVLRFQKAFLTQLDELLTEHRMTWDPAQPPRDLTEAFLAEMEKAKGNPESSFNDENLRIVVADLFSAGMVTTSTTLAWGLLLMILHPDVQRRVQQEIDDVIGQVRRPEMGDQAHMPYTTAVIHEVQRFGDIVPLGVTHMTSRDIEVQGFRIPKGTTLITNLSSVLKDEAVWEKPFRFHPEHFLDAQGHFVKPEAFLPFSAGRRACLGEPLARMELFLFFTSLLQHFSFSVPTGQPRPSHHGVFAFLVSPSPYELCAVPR
# Mus musculus [6] = assay: Antialzheimer activity in okadaic acid-induced cognitive impairment C57BL/6 mouse assessed as reduction in nerve damage in hippocampal DG region at 10 to 30 mg/kg,po once daily for 2 weeks by Nissl staining based microscopy; format: functional, organism-based; settings: dose 10-30 mg/kg
# [7] = Toxicity in okadaic acid-induced cognitive impairment C57BL/6 mouse assessed as change in serum BUN level at 10 to 30 mg/kg,po once daily for 2 weeks; format: organism-based; settings: in vivo, 336 h, dose 10-30 mg/kg
# [8] = Acute toxicity in C57BL/6 mouse assessed as animal death at 500 mg/kg,po observed after 14 days; format: organism-based; settings: in vivo, 336 h, time 14 day
# [9] = Acute toxicity in C57BL/6 mouse assessed as histopathological change in spleen at 500 mg/kg,po observed after 14 days by hematoxylin-eosin staining based analysis; format: organism-based; settings: in vivo, 336 h, time 14 day
# Mus musculus [10] = assay: Antialzheimer activity in okadaic acid-induced cognitive impairment C57BL/6 mouse assessed as downregulation of Tau phosphorylation at Thr212 residue in hippocampus at 10 to 30 mg/kg,po once daily for 2 weeks by ELISA; format: functional, organism-based; settings: dose 10-30 mg/kg
# Mus musculus [11] = assay: Antialzheimer activity in okadaic acid-induced cognitive impairment C57BL/6 mouse assessed as decrease in learning deficit at 10 to 30 mg/kg,po once daily for 2 weeks by Morris water maze test; format: functional, organism-based; settings: dose 10-30 mg/kg
# [12] = Acute toxicity in C57BL/6 mouse assessed as change in spleen weight at 500 mg/kg,po observed after 14 days; format: organism-based; settings: in vivo, 336 h, time 14 day
# [13] = target: Dual specificity protein kinase CLK1 (Homo sapiens, UniProt P49759); assay: Inhibition of CLK1 (unknown origin) at 1 uM preincubated with enzyme for 10 mins followed by substrate and ATP addition measured after 60 mins by ADP-Glo reagent based assay relative to control; settings: time 70.0 min
# Dual specificity protein kinase CLK1, sequence (P49759 whole entry, looked up): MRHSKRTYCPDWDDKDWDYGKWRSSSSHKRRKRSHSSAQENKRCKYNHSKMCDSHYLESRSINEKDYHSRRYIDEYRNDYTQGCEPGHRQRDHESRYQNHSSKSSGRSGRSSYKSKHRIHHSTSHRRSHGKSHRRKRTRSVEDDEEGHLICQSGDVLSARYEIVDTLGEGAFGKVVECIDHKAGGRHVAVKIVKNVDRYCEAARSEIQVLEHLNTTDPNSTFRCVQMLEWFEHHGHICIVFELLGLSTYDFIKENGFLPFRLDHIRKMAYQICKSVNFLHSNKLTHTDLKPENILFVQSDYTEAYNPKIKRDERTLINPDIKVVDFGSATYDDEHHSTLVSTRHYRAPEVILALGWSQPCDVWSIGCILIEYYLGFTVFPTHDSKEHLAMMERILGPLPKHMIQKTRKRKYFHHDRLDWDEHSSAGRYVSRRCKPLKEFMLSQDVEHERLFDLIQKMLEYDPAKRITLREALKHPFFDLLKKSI
# [14] = MRT (0 to t) in Sprague-Dawley rat at 10 mg/kg,po measured upto 24 hrs by LC-MS/MS analysis; format: ADME, organism-based; settings: in vivo
# [15] = Oral bioavailability in Sprague-Dawley rat at 10 mg/kg measured upto 24 hrs by LC-MS/MS analysis; format: ADME, organism-based; settings: in vivo
# [16] = target: Dual specificity protein kinase CLK3 (Homo sapiens, UniProt P49761); assay: Inhibition of CLK3 (unknown origin) at 1 uM preincubated with enzyme for 10 mins followed by substrate and ATP addition measured after 60 mins by ADP-Glo reagent based assay relative to control; settings: time 70.0 min
# Dual specificity protein kinase CLK3, sequence (P49761 whole entry, looked up): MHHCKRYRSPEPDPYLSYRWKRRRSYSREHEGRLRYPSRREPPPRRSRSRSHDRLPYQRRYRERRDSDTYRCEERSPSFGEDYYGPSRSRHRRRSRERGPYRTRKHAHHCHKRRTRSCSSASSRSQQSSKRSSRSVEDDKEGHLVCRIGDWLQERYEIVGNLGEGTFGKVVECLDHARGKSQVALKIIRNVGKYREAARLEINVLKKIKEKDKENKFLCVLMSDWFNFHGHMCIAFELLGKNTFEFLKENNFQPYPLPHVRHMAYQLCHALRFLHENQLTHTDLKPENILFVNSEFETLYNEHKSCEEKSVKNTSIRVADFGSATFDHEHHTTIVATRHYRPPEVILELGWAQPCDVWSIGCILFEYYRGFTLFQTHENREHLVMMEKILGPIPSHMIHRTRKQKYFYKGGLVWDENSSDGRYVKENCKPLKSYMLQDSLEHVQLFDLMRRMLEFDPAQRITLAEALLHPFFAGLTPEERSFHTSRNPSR
# [17] = Apparent permeability across basolateral to apical side in dog MDCK-MDR1 cells at 5 uM incubated for 90 mins by LC-MS/MS analysis; format: ADME, cell-based, Canis lupus familiaris
# [18] = target: Dual specificity tyrosine-phosphorylation-regulated kinase 3 (Homo sapiens, UniProt O43781); assay: Inhibition of DYRK3 (unknown origin) preincubated with enzyme for 10 mins followed by substrate and ATP addition measured after 60 mins by ADP-Glo reagent based assay
# Dual specificity tyrosine-phosphorylation-regulated kinase 3, sequence (O43781 whole entry): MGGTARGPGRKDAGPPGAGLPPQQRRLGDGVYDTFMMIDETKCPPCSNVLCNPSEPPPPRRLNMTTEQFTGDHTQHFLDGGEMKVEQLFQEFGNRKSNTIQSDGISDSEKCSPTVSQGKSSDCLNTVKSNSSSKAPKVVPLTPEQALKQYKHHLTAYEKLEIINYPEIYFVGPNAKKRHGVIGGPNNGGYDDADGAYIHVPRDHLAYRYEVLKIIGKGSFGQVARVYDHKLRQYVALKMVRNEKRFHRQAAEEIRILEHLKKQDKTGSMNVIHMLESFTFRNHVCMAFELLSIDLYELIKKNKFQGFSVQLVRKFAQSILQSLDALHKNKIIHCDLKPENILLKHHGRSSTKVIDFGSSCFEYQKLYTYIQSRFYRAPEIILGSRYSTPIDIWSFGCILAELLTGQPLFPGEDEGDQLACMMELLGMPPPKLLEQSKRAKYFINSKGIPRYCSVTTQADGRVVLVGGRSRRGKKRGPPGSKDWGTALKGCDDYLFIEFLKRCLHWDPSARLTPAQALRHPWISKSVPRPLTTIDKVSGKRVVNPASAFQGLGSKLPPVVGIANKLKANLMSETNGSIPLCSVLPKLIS
# [19] = Drug concentration in Sprague-Dawley rat brain at 10 mg/kg,po measured after 6 hrs by LC-MS/MS analysis; format: ADME, organism-based; settings: read-out: Ct
# [20] = Acute toxicity in C57BL/6 mouse assessed as change in liver weight at 500 mg/kg,po observed after 14 days; format: organism-based; settings: in vivo, 336 h, time 14 day
# [21] = Drug concentration in Sprague-Dawley rat brain at 10 mg/kg,po measured after 2 hrs by LC-MS/MS analysis; format: ADME, organism-based; settings: read-out: Ct
# SH-SY5Y = assay: Cytotoxicity against human SH-SY5Y cells expressing human Tau P301L mutant at 0.15625 to 10 uM incubated for 24 hrs by MTT assay; format: functional, cell-based; settings: dose 0.15625-10 µM
smiles,measurement,setting,value
Cc1ccc2c(-c3ccc4ncnc(N[C@H](CO)c5ccccc5)c4c3)c[nH]c2n1,"half-life at […], 1 µM",[1],1.53 h
same,Activity,[2],Non-Toxic
same,MRT inf,[3],5.98 h
same,"Papp A→B at […], 5 µM",[4],2.67 ×10⁻⁶ cm/s
same,Activity,Mus musculus [5],Active
same,"inhibition at 40 min, 10 µM",CYP2D6,65.8%
same,Activity,Mus musculus [6],Active
same,Activity,[7],Non-Toxic
same,Activity,[8],Non-Toxic
same,Activity,[9],Non-Toxic
same,Activity,Mus musculus [10],Active
same,Activity,Mus musculus [11],Active
same,Activity,[12],Non-Toxic
same,inhibition,[13],99.5%
same,MRT last at 24 h,[14],5.77 h
same,bioavailability,[15],39.7%
same,inhibition,[16],113%
same,"Papp B→A at […], 5 µM",[17],30.6 ×10⁻⁶ cm/s
same,IC50,[18],17.5 nM
same,concentration at 6 h,[19],13.1 ng/g
same,Activity,[20],Non-Toxic
same,concentration at 2 h,[21],16.8 ng/g
same,Activity,SH-SY5Y,inactive

# — ChEMBL document CHEMBL5550204, “Discovery of ZJCK-6-46: A Potent, Selective, and Orally Available Dual-Specificity Tyrosine Phosphorylation-Regulated Kinase 1A Inhibitor for the Treatment of Alzheimer's Disease” (J Med Chem, 2024)
